Laboratory results as given in PubChem BioAssay AID330 (DTP/NCI, 2004).
Where “and” joins values, the source holds several entries; their conditions need not be identical. Equal values may be shown once. Inconclusive results and toxic doses are left out.

Tested on: P388 leukemia ip, CD2F1 mice, survival T/C
Test: NCI In Vivo Anticancer Drug Screen. Data for tumor model P388 Leukemia (intraperitoneal) in CD2F1 (CDF1) mice
Settings: endpoint: median survival time, higher = longer survival
Procedure, shortened: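 Mice carrying the transplanted tumor received test compound or vehicle. Survival was recorded in each group, and the value is the treated-group measurement divided by that of the vehicle-treated control group.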

[1] = dose: 100.0 mg/kg/injection, schedule: Q01DX009 (ip), vehicle: saline with Tween-80
[2] = dose: 200.0 mg/kg/injection, schedule: Q01DX009 (ip), vehicle: saline with Tween-80
[3] = dose: 400.0 mg/kg/injection, schedule: Q01DX009 (ip), vehicle: saline with Tween-80
[4] = dose: 100.0 mg/kg/injection, schedule: Q01DX001 (ip), vehicle: saline
[5] = dose: 200.0 mg/kg/injection, schedule: Q01DX001 (ip), vehicle: saline
[6] = dose: 400.0 mg/kg/injection, schedule: Q01DX001 (ip), vehicle: saline
[7] = dose: 50.0 mg/kg/injection, schedule: Q01DX005 (ip), vehicle: Klucel (hydroxypropylcellulose) (HPC)
[8] = dose: 100.0 mg/kg/injection, schedule: Q01DX005 (ip), vehicle: Klucel (hydroxypropylcellulose) (HPC)
[9] = dose: 200.0 mg/kg/injection, schedule: Q01DX005 (ip), vehicle: Klucel (hydroxypropylcellulose) (HPC)
[10] = dose: 100.0 mg/kg/injection, schedule: Q04DX003 (ip), vehicle: saline with Tween-80
[11] = dose: 50.0 mg/kg/injection, schedule: Q01DX009 (ip), vehicle: saline
[12] = dose: 100.0 mg/kg/injection, schedule: Q01DX009 (ip), vehicle: saline
[13] = dose: 200.0 mg/kg/injection, schedule: Q01DX009 (ip), vehicle: saline
[14] = dose: 100.0 mg/kg/injection, schedule: Q01DX001 (ip), vehicle: Klucel (hydroxypropylcellulose) (HPC)
[15] = dose: 200.0 mg/kg/injection, schedule: Q01DX001 (ip), vehicle: Klucel (hydroxypropylcellulose) (HPC)
[16] = dose: 400.0 mg/kg/injection, schedule: Q01DX001 (ip), vehicle: Klucel (hydroxypropylcellulose) (HPC)
[17] = dose: 60.0 mg/kg/injection, schedule: Q01DX005 (ip), vehicle: Klucel (hydroxypropylcellulose) (HPC)
[18] = dose: 120.0 mg/kg/injection, schedule: Q01DX005 (ip), vehicle: Klucel (hydroxypropylcellulose) (HPC)
[19] = dose: 50.0 mg/kg/injection, schedule: Q01DX001 (ip), vehicle: saline
[20] = dose: 25.0 mg/kg/injection, schedule: Q01DX009 (ip), vehicle: Klucel (hydroxypropylcellulose) (HPC)
[21] = dose: 25.0 mg/kg/injection, schedule: Q01DX009 (ip), vehicle: saline with Tween-80
[22] = dose: 50.0 mg/kg/injection, schedule: Q01DX009 (ip), vehicle: saline with Tween-80
[23] = dose: 50.0 mg/kg/injection, schedule: Q01DX005 (ip), vehicle: saline with Tween-80
[24] = dose: 100.0 mg/kg/injection, schedule: Q01DX005 (ip), vehicle: saline with Tween-80
[25] = dose: 200.0 mg/kg/injection, schedule: Q01DX005 (ip), vehicle: saline with Tween-80

O=CNc1ccc(O)cc1
T/C [1]: 100 % of control | T/C [2]: 109 % of control | T/C [3]: 118 % of control

C=CC[S+]1CCSC1C(=O)OCC (centres undefined)
T/C [4]: 95 % of control | T/C [5]: 112 % of control | T/C [6]: 91 % of control

c1ccc(CNc2cccc(NCc3ccccn3)n2)nc1
T/C [7]: 101 % of control | T/C [8]: 95 % of control | T/C [9]: 108 % of control

O/N=C\c1ccc(/C=N/O)cc1
T/C (dose: 50.0 mg/kg/injection, schedule: Q04DX003 (ip), vehicle: saline with Tween-80): 100 % of control | T/C [10]: 100 % of control | T/C (dose: 200.0 mg/kg/injection, schedule: Q04DX003 (ip), vehicle: saline with Tween-80): 95 % of control

CSC(=S)n1nc(-c2ccccc2)c(N=Nc2ccc(Br)cc2)c1-c1ccccc1
T/C (dose: 100.0 mg/kg/injection, schedule: Q04DX002 (ip), vehicle: Klucel (hydroxypropylcellulose) (HPC)): 100 % of control | T/C (dose: 200.0 mg/kg/injection, schedule: Q04DX002 (ip), vehicle: Klucel (hydroxypropylcellulose) (HPC)): 97 % of control | T/C (dose: 400.0 mg/kg/injection, schedule: Q04DX002 (ip), vehicle: Klucel (hydroxypropylcellulose) (HPC)): 101 % of control

COC(=S)SCN(CSC(=S)OC)c1ccccc1Cl
T/C (dose: 100.0 mg/kg/injection, schedule: Q04DX003 (ip), vehicle: saline): 100 % of control | T/C (dose: 200.0 mg/kg/injection, schedule: Q04DX003 (ip), vehicle: saline): 100 % of control | T/C (dose: 400.0 mg/kg/injection, schedule: Q04DX003 (ip), vehicle: saline): 118 % of control

C[C@]12CC[C@@H]3c4ccc(O)cc4CC[C@H]3[C@@H]1C[C@@H](O)[C@@H]2O
T/C [11]: 112 % of control | T/C [12]: 100 % of control | T/C [13]: 100 % of control | T/C (dose: 400.0 mg/kg/injection, schedule: Q01DX009 (ip), vehicle: saline): 91 % of control

C=Cn1c([N+](=O)[O-])cnc1/C=C/c1ccc(C#N)cc1
T/C [14]: 94 % of control | T/C [15]: 96 % of control | T/C [16]: 93 % of control

CCc1c(O)c2c(n(C)c1=O)CC(C)(C)NC2=S
T/C [17]: 100 % of control | T/C [18]: 100 % of control

C=CCC(C)/C(=N\[N+](C)(C)C)c1ccccc1 (centres undefined)
T/C (dose: 12.5 mg/kg/injection, schedule: Q01DX001 (ip), vehicle: saline): 100 % of control | T/C (dose: 25.0 mg/kg/injection, schedule: Q01DX001 (ip), vehicle: saline): 106 % of control | T/C [19]: 99 % of control

CCN(CC)C1=Nc2ccccc2N(c2ccccc2)C(=S)C1
T/C [7]: 106 % of control | T/C [8]: 103 % of control | T/C [9]: 100 % of control

COc1cc(/C=N/NC(=O)c2ccc(NC(C)=O)cc2)ccc1O
T/C [7]: 90 % of control | T/C [8]: 90 % of control | T/C [9]: 90 % of control

COC(=O)CS(=O)(=O)CS(=O)(=O)CC(=O)OC
T/C [11]: 107 % of control | T/C [12]: 100 % of control | T/C [13]: 97 % of control

Cc1ccc(N=CN(C)C=Nc2ccc(C)cc2C)c(C)c1
T/C (dose: 50.0 mg/kg/injection, schedule: Q01DX009 (ip), vehicle: suspension in saline): 104 % of control | T/C (dose: 100.0 mg/kg/injection, schedule: Q01DX009 (ip), vehicle: suspension in saline): 113 % of control | T/C (dose: 200.0 mg/kg/injection, schedule: Q01DX009 (ip), vehicle: suspension in saline): 107 % of control

NCC(=O)NC(CSC(c1ccccc1)c1ccccc1)C(=O)NCC(=O)O (centres undefined)
T/C [7]: 102 % of control | T/C [8]: 103 % of control | T/C [9]: 96 % of control

C[CH2][Sn]([Cl])([CH2]C)[c]1cc[c]([Sn]([Cl])([CH2]C)[CH2]C)cc1
T/C (dose: 0.02 mg/kg/injection, schedule: Q01DX005 (ip), vehicle: Klucel (hydroxypropylcellulose) (HPC)): 118 % of control

CC(C)(C)c1cc(C(c2ccc3c(c2)OCO3)N2CCOCC2)c(O)c(C(C)(C)C)c1 (centres undefined)
T/C (dose: 60.0 mg/kg/injection, schedule: Q01DX005 (ip), vehicle: saline with Tween-80): 100 % of control | T/C (dose: 120.0 mg/kg/injection, schedule: Q01DX005 (ip), vehicle: saline with Tween-80): 100 % of control | T/C (dose: 240.0 mg/kg/injection, schedule: Q01DX005 (ip), vehicle: saline with Tween-80): 100 % of control

O=C1CN=C(c2ccc[nH]2)c2cc(Cl)ccc2N1
T/C [20]: 120 % of control | T/C [21]: 109 % of control | T/C [19]: 109 % of control | T/C [22]: 100 % of control | T/C [4]: 109 % of control | T/C [1]: 104 % of control | T/C [5]: 104 % of control | T/C [2]: 118 % of control | T/C [6]: 100 % of control | T/C [3]: 118 % of control

CCOC(=O)c1ccc2c(c1)NCc1cccc(OC)c1O2
T/C [17]: 100 % of control | T/C [18]: 103 % of control | T/C (dose: 240.0 mg/kg/injection, schedule: Q01DX005 (ip), vehicle: Klucel (hydroxypropylcellulose) (HPC)): 100 % of control

O=P(OCC(F)(F)F)(OCC(F)(F)F)c1ccccc1
T/C [23]: 102 % of control | T/C [24]: 101 % of control | T/C [25]: 96 % of control

C/C(=N\N=C(\N)N1CCOCC1)c1ccc2c(c1)Cc1ccccc1-2
T/C (dose: 100.0 mg/kg/injection, schedule: Q04DX002 (ip), vehicle: saline with Tween-80): 101 % of control

Cc1ccc(N2CCCCN(c3ccc(C)cc3)/C(c3ccccc3)=C\2c2ccccc2)cc1
T/C [14]: 91 % of control | T/C [15]: 91 % of control | T/C [16]: 101 % of control and 91 % of control

CS(=O)(=O)ON1C(=O)c2ccccc2C1=O
T/C (dose: 25.0 mg/kg/injection, schedule: Q04DX003 (ip), vehicle: Klucel (hydroxypropylcellulose) (HPC)): 104 % of control and 108 % of control | T/C (dose: 50.0 mg/kg/injection, schedule: Q04DX003 (ip), vehicle: Klucel (hydroxypropylcellulose) (HPC)): 105 % of control and 110 % of control | T/C (dose: 100.0 mg/kg/injection, schedule: Q04DX003 (ip), vehicle: Klucel (hydroxypropylcellulose) (HPC)): 103 % of control and 95 % of control | T/C (dose: 200.0 mg/kg/injection, schedule: Q04DX003 (ip), vehicle: Klucel (hydroxypropylcellulose) (HPC)): 100 % of control

Cc1cc(Cl)ccc1NC(=O)/N=C1\NC(=O)CS1
T/C [22]: 87 % of control | T/C [1]: 100 % of control | T/C [2]: 110 % of control

Cc1nc2c(N)cc(Cl)cc2[nH]1
T/C (dose: 50.0 mg/kg/injection, schedule: Q01DX005 (ip), vehicle: saline + Tween-80 + alcohol): 101 % of control | T/C [23]: 103 % of control | T/C (dose: 100.0 mg/kg/injection, schedule: Q01DX005 (ip), vehicle: saline + Tween-80 + alcohol): 110 % of control | T/C [24]: 113 % of control | T/C [25]: 120 % of control

CCCCOC(=O)c1[nH]cnc1/N=N\N(C)C
T/C [21]: 120 % of control | T/C [1]: 105 % of control | T/C [10]: 108 % of control | T/C (dose: 132.0 mg/kg/injection, schedule: Q04DX003 (ip), vehicle: saline with Tween-80): 100 % of control | T/C (dose: 300.0 mg/kg/injection, schedule: Q04DX003 (ip), vehicle: saline with Tween-80): 90 % of control | T/C (dose: 400.0 mg/kg/injection, schedule: Q04DX003 (ip), vehicle: saline with Tween-80): 100 % of control

[CH3][Sn]([CH3])([Cl])[c]1cc[c]([Sn]([CH3])([CH3])[Cl])cc1
T/C (dose: 0.19 mg/kg/injection, schedule: Q01DX005 (ip), vehicle: suspension in saline): 122 % of control | T/C (dose: 0.39 mg/kg/injection, schedule: Q01DX005 (ip), vehicle: suspension in saline): 115 % of control | T/C (dose: 0.79 mg/kg/injection, schedule: Q01DX005 (ip), vehicle: saline): 160 % of control | T/C (dose: 3.12 mg/kg/injection, schedule: Q01DX005 (ip), vehicle: suspension in saline): 154 % of control

COCN1C(=O)CN=C(c2ccccc2)c2cc(NO)ccc21
T/C (dose: 12.5 mg/kg/injection, schedule: Q01DX009 (ip), vehicle: Klucel (hydroxypropylcellulose) (HPC)): 105 % of control | T/C [20]: 105 % of control | T/C (dose: 50.0 mg/kg/injection, schedule: Q01DX009 (ip), vehicle: Klucel (hydroxypropylcellulose) (HPC)): 100 % of control and 106 % of control
